Key:
[1] = test system: 5xFAD transgenic mice; assay: Neurogenesis (Sox2/DCX/NeuN staining); type: in vivo; conditions: 10 to 20 mg/kg; compared to the WT normal group; FIG. 17
Experimental: 5xFAD animals were administered with HN-1703 at three doses for 14 days to male heterozygotes aged 6 months (all born within 3 days). The behaviors of mice were measured in a dark cycle in which the mice were active while alternating light and dark in a 12-hour cycle in a breeding room chamber, and the mice were freely accessible to food and water and bred in compliance with experimental animal ethical guidelines of Kyung Hee University. In each group, the HN-1703 was intraperitoneally injected at the same time once a day in a volume of 100 μl to 12 mice in a normal group (wild type littermate), 9 5xFAD mice in a vehicle (DMSO administration), 8 5xFAD mice in a 5 mg/kg administered group, 9 5xFAD mice in a 10 mg/kg administered group, and 9 5xFAD mice in a 20 mg/kg administered group. […] Behavioral measures were measured in Y-maze, Morris Water Maze, and Passive Avoidance test for 18 days in sequence. […]
FIG. 17 illustrates confocal scanning micrographs of a subgranular zone region of the hippocampal dentate gyrus after triple staining with an NeuN antibody as a neuron marker, an Sox2 antibody as a type1 neural progenitor cell marker, and a DCX antibody as a differentiating and migrating type3 neural precursor cell marker, and quantifying the number of Sox2+/NeuN+ cells and the number of DCX+/NeuN+ cells.

[2] = molecular target: T1, mTORC1 (Homo sapiens, UniProt P42345); assay: mTORC1 inhibition, immunoblot of S6K Thr389 phosphorylation in HeLa cells; type: cell-based; conditions: at 40 µM, FIG. 2A
T1 construct: endogenous in cells; host or cells: HeLa
Experimental: HeLa cells were cultured in DMEM (Dulbesco's Modified Eagles Media) containing 10% FBS, penicillin (100 units/ml), and streptomycin (100 μg/ml) at 37° C. in a 5% CO2 incubator. Culture was started by seeding 4×10^5 cells in a 100 mm culture dish, and subcultured every 3 days.
Immunoblot analysis was performed by the following method. SDS-PAGE-developed proteins were electroblotted and transferred and a PVDF membrane was blocked by shaking for 1 hour in a TBS-T buffer (20 mM Tris, 137 mM NaCl, 0.1% Tween 20) containing 5% skim milk. The membrane was repeatedly washed with a TBS-T buffer three times for 5 minutes, and reacted with a first antibody diluted in a TBS-T buffer containing 5% skim milk or 5% BSA overnight at 4° C. Thereafter, the membrane was repeatedly washed with a TBS-T buffer three times for 5 minutes, and reacted with a second antibody diluted in a TBS-T buffer containing 5% skim milk for 30 minutes at room temperature. The membrane was repeatedly washed with a TBS-T buffer containing 5% skim milk five times for 5 minutes, and then protein bands bound to the second antibody were detected by a chemiluminescence method. […]

[3] = test system: primary cultured neurons; assay: LC3-II turnover analysis (LC3 immunoblot); type: cell-based, rat; conditions: FIG. 3B
[4] = test system: 5xFAD transgenic mice; assay: Neuroinflammation, Iba-1 staining of brain slices; type: in vivo; conditions: hippocampal dentate gyrus; compared to a 5xFAD-DMSO control group; FIG. 11
Experimental: 5xFAD animals were administered with HN-1703 at three doses for 14 days to male heterozygotes aged 6 months (all born within 3 days). The behaviors of mice were measured in a dark cycle in which the mice were active while alternating light and dark in a 12-hour cycle in a breeding room chamber, and the mice were freely accessible to food and water and bred in compliance with experimental animal ethical guidelines of Kyung Hee University. In each group, the HN-1703 was intraperitoneally injected at the same time once a day in a volume of 100 μl to 12 mice in a normal group (wild type littermate), 9 5xFAD mice in a vehicle (DMSO administration), 8 5xFAD mice in a 5 mg/kg administered group, 9 5xFAD mice in a 10 mg/kg administered group, and 9 5xFAD mice in a 20 mg/kg administered group. […] In a behavioral measurement room, humidity (40 to 60%) and temperature (22 to 26° C.) were maintained, and reflected light was maintained to avoid sound and light effects. Behavioral measures were measured in Y-maze, Morris Water Maze, and Passive Avoidance test for 18 days in sequence.
A brain slice immunostaining method was modified and used as described in Heo H et al. (J Ethnopharmacol, 2009). Mice were transcardially perfused with 4% PFA. […]

COc1cc(OC)c2c(=O)c3cc4c(cc3oc2c1)OCO4 [HN-1703, 7,9-dimethoxy-10H-[1,3]dioxolo[4,5-b]xanthen-10-one]
DCX+ neural progenitor cells [1]: twice or more
Sox2+ neural progenitor cells [1]: more Sox2+ neural progenitor cells were observed
inhibition of mTORC1 activity (S6K Thr389 phosphorylation) compared to the control group [2]: 48%
LC3-II formation compared to the control group ([3]; in the presence of bafilomycin A1, a lysosome mature inhibitor): significantly increased LC3-II formation
LC3-II (autophagy activation marker) compared to the control group ([3]; up to 36 hours after treating the compound): significantly increased LC3-II
Iba-1 staining (activated microglia) [4]: significantly reduced

From patent publication US12605358B2, “Composition for preventing or treating nervous system diseases comprising compound that inhibits mTOR signaling pathway as active ingredient” (ALIAD BIOPHARMA, priority 2021, dated 2026)
